For eight compounds, GI50 and TGI results are on record in PubChem BioAssay (NCI).

Some test systems named below: LOX IMVI melanoma; OVCAR-3 ovarian; CAKI-1 renal; SN12C renal; SW-620 colon; HOP-92 NSCLC; UACC-257 melanoma; HL-60(TB) leukemia; A498 renal; SK-MEL-28 melanoma.
Holding throughout (assay): NCI tumour cell line growth inhibition, 48 h

Several values for one entry are separate records, joined by “and”; a condition that tells them apart may be missing. Equal values may be shown once.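 Cultured in 96-well plates, cells were exposed to test compound for 48 hours across five concentrations. GI50 marks 50% less growth. TGI marks complete inhibition of growth.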

For `CCC(=O)c1ccc2c(c1)N(CCCN1CCN(CCO)CC1)c1ccccc1S2`, the GI50 in the test on LOX IMVI melanoma was 11.1 µM; in the test on OVCAR-3 ovarian it was 15.6 µM; in the test on CAKI-1 renal, 13.4 µM; in the test on SN12C renal, 16.3 µM; in the test on SW-620 colon it was 16.1 µM; with HOP-92 NSCLC it was 3.43 µM. Besides, the GI50 in the test with UACC-257 melanoma is 2.86 µM; in the test on HL-60(TB) leukemia, 12.7 µM; in the test on A498 renal, 8.33 µM; with SK-MEL-28 melanoma, 2.75 µM. In addition, the TGI came out at 26.5 µM in the test on LOX IMVI melanoma; 29.8 µM with OVCAR-3 ovarian; 27.5 µM in the test on CAKI-1 renal; 33 µM in the test on SN12C renal; 31 µM with SW-620 colon; 15.2 µM in the test on HOP-92 NSCLC. Besides, the TGI in the test with UACC-257 melanoma was determined as 7.97 µM; with HL-60(TB) leukemia, 30.3 µM; in the test with A498 renal, 22.3 µM; with SK-MEL-28 melanoma, 7.75 µM.

As to `O=[N+]([O-])/C=C/c1ccc([N+](=O)[O-])cc1`, the GI50 was 1.32 µM with LOX IMVI melanoma; 1.84 µM in the test on OVCAR-3 ovarian; 4.16 µM in the test with CAKI-1 renal; 2.37 µM in the test on SN12C renal; 1.49 µM in the test with SW-620 colon; 13 µM in the test on HOP-92 NSCLC. The GI50 in the test with UACC-257 melanoma is 1.88 µM; with HL-60(TB) leukemia, 5.38 µM; in the test with A498 renal, 2.98 µM; with SK-MEL-28 melanoma it was 2.74 µM. Besides, the TGI is 2.73 µM with LOX IMVI melanoma; 3.28 µM in the test on OVCAR-3 ovarian; 21.1 µM in the test with CAKI-1 renal; 6.83 µM in the test on SN12C renal; 3.21 µM in the test with SW-620 colon; 28.9 µM with HOP-92 NSCLC. Besides, the TGI in the test on UACC-257 melanoma came out at 5.01 µM; with HL-60(TB) leukemia, 54.8 µM; with A498 renal it was 10.1 µM; with SK-MEL-28 melanoma it was 7.57 µM.

With `C=C(C)[C@@H]1CC[C@]2(C(=O)NCCNCCNCCN)CC[C@]3(C)[C@H](CC[C@@H]4[C@@]5(C)CCC(=O)C(C)(C)[C@@H]5CC[C@]43C)[C@@H]12`, the GI50 in the test on LOX IMVI melanoma was 8.72 µM; in the test on OVCAR-3 ovarian it was 7.65 µM; with CAKI-1 renal, 5.87 µM; with SN12C renal, 7.56 µM; in the test with SW-620 colon, 7.91 µM; with HOP-92 NSCLC, 2.93 µM. In addition, the GI50 with UACC-257 melanoma was 7.91 µM; with HL-60(TB) leukemia it was 8.88 µM; with A498 renal, 42.6 µM; in the test on SK-MEL-28 melanoma, 8.5 µM. In addition, the TGI was found to be 16.6 µM in the test with LOX IMVI melanoma; 15 µM in the test on OVCAR-3 ovarian; 13.1 µM with CAKI-1 renal; 15.3 µM in the test on SN12C renal; 16.6 µM with SW-620 colon; 10.3 µM in the test with HOP-92 NSCLC. The TGI in the test on UACC-257 melanoma is 18.3 µM; in the test with HL-60(TB) leukemia, 19 µM; with A498 renal, over 50 µM; with SK-MEL-28 melanoma it was 17 µM.

As for `C[C@@H]1COC(Nc2ccc3ncnc(Nc4ccc(OCc5nccs5)c(Cl)c4)c3c2)=N1`, the GI50 is 3.73 µM and 4.31 µM with LOX IMVI melanoma; 2.07 µM and 2.67 µM in the test on OVCAR-3 ovarian; 2.24 µM and 0.685 µM with CAKI-1 renal; 6.15 µM and 4.86 µM in the test with SN12C renal; > 10 µM and 14.6 µM in the test on SW-620 colon; 0.633 µM and 0.782 µM in the test on HOP-92 NSCLC. Also, the GI50 was > 10 µM and 5.59 µM in the test on UACC-257 melanoma; 3.7 µM and 4.2 µM in the test with HL-60(TB) leukemia; 3.02 µM and 0.342 µM in the test with A498 renal; 4.46 µM and 5.45 µM with SK-MEL-28 melanoma. Also, the TGI in the test with LOX IMVI melanoma was > 10 µM and 17 µM; with OVCAR-3 ovarian, > 10 µM and 14.2 µM; in the test on CAKI-1 renal, > 10 µM and 15.1 µM; in the test with SN12C renal it was > 10 µM and 26 µM; in the test with SW-620 colon, > 10 µM and 59.7 µM; with HOP-92 NSCLC, 8.43 µM and 5.68 µM. Also, the TGI in the test on UACC-257 melanoma was > 10 µM and 25.6 µM; in the test on HL-60(TB) leukemia, over 100 µM; in the test with A498 renal, > 10 µM and 6.25 µM; in the test with SK-MEL-28 melanoma it was > 10 µM and 18.9 µM.

Turning to `Cc1cn2c(=O)n(c1=O)Cc1ccccc1C2`, the GI50 in the test on LOX IMVI melanoma was 32 µM; in the test with OVCAR-3 ovarian, over 100 µM; with CAKI-1 renal it was over 100 µM; in the test on SN12C renal, over 100 µM; in the test on SW-620 colon it was over 100 µM; with HOP-92 NSCLC, over 100 µM. For the same compound, the GI50 in the test with UACC-257 melanoma is over 100 µM; in the test with HL-60(TB) leukemia, over 100 µM; in the test on A498 renal, 35.1 µM; in the test on SK-MEL-28 melanoma it was over 100 µM. The TGI with LOX IMVI melanoma, in the test on OVCAR-3 ovarian, with CAKI-1 renal, in the test on SN12C renal, in the test with SW-620 colon and with HOP-92 NSCLC was over 100 µM each time. Further, the TGI in the test on UACC-257 melanoma, in the test with HL-60(TB) leukemia, in the test on A498 renal and in the test with SK-MEL-28 melanoma was over 100 µM in each case.

`O=C(/C=C\c1ccc2ccccc2n1)c1cc(Cl)ccc1O`: the GI50 with LOX IMVI melanoma is 2.84 µM; with OVCAR-3 ovarian, 5.31 µM; in the test with CAKI-1 renal, 5.49 µM; with SN12C renal it was 9.58 µM; with SW-620 colon it was 1.84 µM; with HOP-92 NSCLC, 1.82 µM. Further, the GI50 was 24.3 µM with UACC-257 melanoma, 3.32 µM in the test with HL-60(TB) leukemia, 28.9 µM with A498 renal and 18.7 µM in the test with SK-MEL-28 melanoma. The TGI with LOX IMVI melanoma stood at 11.7 µM; in the test on OVCAR-3 ovarian, 17.1 µM; with CAKI-1 renal, 21.5 µM; with SN12C renal, 24.4 µM; in the test with SW-620 colon, 3.84 µM; in the test on HOP-92 NSCLC it was 9.35 µM. The TGI in the test with UACC-257 melanoma was 63.2 µM; in the test with HL-60(TB) leukemia it was 11.3 µM; with A498 renal it was over 100 µM; with SK-MEL-28 melanoma, 49.6 µM.

Turning to `CN(C)S(=O)(=O)c1ccc(Nc2ccc(O)c3c2C(=O)c2c([N+](=O)[O-])ccc(O)c2C3=O)cc1`, the TGI in the test on LOX IMVI melanoma, with OVCAR-3 ovarian, in the test with CAKI-1 renal, in the test on SN12C renal, with SW-620 colon and with HOP-92 NSCLC was over 100 µM in each case. In addition, the TGI with UACC-257 melanoma, in the test on HL-60(TB) leukemia, in the test on A498 renal and in the test with SK-MEL-28 melanoma was over 100 µM in each case.

With `COC(=O)[C@]12CC=C3O[C@@H]4OC5(CCCCC5)O[C@@H]4[C@H]3C1C(=O)C=CC2=O` (stereo not given in full), the TGI in the test on LOX IMVI melanoma was 35.2 µM; with OVCAR-3 ovarian, 28.7 µM; in the test on CAKI-1 renal, 30.4 µM; in the test on SN12C renal, 35.1 µM; with SW-620 colon it was 32.1 µM; in the test with HOP-92 NSCLC, 33.1 µM. The TGI with UACC-257 melanoma was determined as 32.5 µM; in the test with HL-60(TB) leukemia, 25.9 µM; in the test on A498 renal, 33.6 µM; in the test with SK-MEL-28 melanoma it was 34.2 µM.
